In PubChem BioAssay (NCI):
Several values for one entry are separate records, joined by “and”; a condition that tells them apart may be missing. Identical values can stand only once.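 Five compound concentrations were applied to cells in 96-well plates for 48 hours; endpoints were derived by simple linear interpolation of the resulting dose-response curve. At the GI50, growth is halved. TGI: concentration producing complete growth inhibition.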

How the values were obtained:
Assay in all cases: NCI-60 cell line screen, 48 h
786-0 renal = system: 786-0 renal
COLO 205 colon = system: COLO 205 colon
EKVX NSCLC = system: EKVX NSCLC
IGROV1 ovarian = system: IGROV1 ovarian
MDA-MB-231 breast = system: MDA-MB-231 breast
NCI-H226 lung = system: NCI-H226 lung
NCI-H460 lung = system: NCI-H460 lung
NCI/ADR-RES ovarian = system: NCI/ADR-RES ovarian
SK-MEL-28 melanoma = system: SK-MEL-28 melanoma
SK-OV-3 ovarian = system: SK-OV-3 ovarian
T-47D breast = system: T-47D breast

Compound | TGI (786-0 renal) [µM] | GI50 (COLO 205 colon) [µM] | TGI (COLO 205 colon) | GI50 (EKVX NSCLC) [µM] | TGI (EKVX NSCLC) [µM] | GI50 (IGROV1 ovarian) [µM] | TGI (IGROV1 ovarian) | GI50 (MDA-MB-231 breast) [µM] | TGI (MDA-MB-231 breast) [µM] | GI50 (NCI-H226 lung) [µM] | TGI (NCI-H226 lung) | TGI (NCI-H460 lung) | TGI (NCI/ADR-RES ovarian) [µM] | GI50 (SK-MEL-28 melanoma) | TGI (SK-MEL-28 melanoma) | GI50 (SK-OV-3 ovarian) [µM] | TGI (SK-OV-3 ovarian) | GI50 (T-47D breast) [µM] | TGI (T-47D breast)
CC(=O)C1(O)Cc2c(O)c3c(c(O)c2C(OC2CC(N)C(O)C(C)O2)C1)C(=O)c1ccccc1C3=O (stereo not drawn) | 0.0409 | 0.0227 | 0.803 µM and 0.181 µM | 0.0826 | 0.811 | 0.0383 | 0.525 µM and 0.503 µM | 0.0948 | 1.22 | < 0.0113 | 0.139 µM and 0.0538 µM | 0.0836 µM and 0.0123 µM | 4.88 | 0.151 µM and 0.049 µM | 0.49 µM and 0.367 µM | < 0.0129 | 0.788 µM and 0.129 µM | < 0.0145 | 0.631 µM and 0.219 µM
COC(=O)[C@H](CCSC)NC(=O)c1ccc(CNC(=O)/C(C)=C/c2ccccc2)cc1 | 41.8 |  | > 100 µM |  | > 100 |  | > 100 µM |  | > 100 |  | > 100 µM | > 100 µM | 68.5 |  | 64.7 µM |  | > 100 µM |  | > 100 µM
CC(/C=N/NC1=NCCCN1)=N\NC1=NCCCN1 | > 100 |  | > 100 µM |  | > 100 |  | > 100 µM |  | > 100 |  | > 100 µM | > 100 µM | > 100 |  | > 100 µM |  | > 100 µM |  | > 100 µM
NCCCC[C@H](N)C(=O)Nc1ccc(-c2nc3ccccc3s2)cc1Cl | 8.11 |  | 17.9 µM |  | 19.6 |  | 22.7 µM |  | 26.6 |  | 4.62 µM | 13.7 µM | 51.8 |  | 23.4 µM |  | 31.1 µM |  | 19.4 µM
COc1ccc2c(c1)-c1[nH]c3ccccc3c1CC2 | 32.2 |  | 32.3 µM |  | 21.9 |  | 18.8 µM |  | 33.8 |  | 26.2 µM | 29.9 µM | 24.3 |  | 32.1 µM |  | 33.6 µM |  | 29.1 µM
O=C1OC(=O)C2C1C(c1ccccc1[N+](=O)[O-])C=C(c1ccco1)N2c1ccncc1 (stereo not drawn) | 3.97 |  | 23.9 µM |  | 39.7 |  | 5.3 µM |  | 32.9 |  | > 39.2 µM | 31.9 µM | 52.6 |  | 24.5 µM |  | 32 µM |  | 14 µM
O=[N+]([O-])c1ccc2ncccc2c1CCc1c([N+](=O)[O-])ccc2ncccc12 | > 100 |  | > 100 µM |  | > 100 |  | > 100 µM |  | > 100 |  | > 100 µM | > 100 µM | > 100 |  | > 100 µM |  | > 100 µM |  | > 100 µM
CN(C)c1ccc(/C=c2/c3cc([N+](=O)[O-])ccc3n3c2cc(-c2ccccc2)[n+]3C)cc1 | 10.3 |  | 1.48 µM |  | 7.81 |  | 2.29 µM |  | 2.75 |  | 36 µM | 11.7 µM | > 100 |  | 3.09 µM |  | 11.3 µM |  | 1.81 µM
CCOC(=O)CC[C@H](N)C(=O)N[C@H](Cc1ccc(N(CCCl)CCCl)cc1)C(=O)OCC | 5.32 |  | 4.26 µM |  | 19.1 |  | 9.37 µM |  | 16.2 |  | > 47.7 µM | 16.2 µM | 11.3 |  | > 60.7 µM |  | 11.7 µM |  | 6.55 µM
OC(CN1CCCCC1)c1ccc(/C=C/c2ccc(Cl)cc2)cc1 (stereo not drawn) | > 100 |  | 36 µM |  | > 100 |  | 66.5 µM |  | > 100 |  | > 100 µM | > 100 µM | > 100 |  | 42.6 µM |  | > 100 µM |  | > 100 µM
